27 molecules from patent publication US6534496B1, “Thermogenic composition and benzazepine thermogenics” (Takeda Chemical Industries, Inc., priority 1997, dated 2003) can be followed below.

Counter-ions that a name gives are not always drawn.

A word on the melting point: it is the temperature of the solid-liquid transition. Molecule `Cc1ccc(CN2CCC(CCCC(=O)c3ccc4c(c3)CCN(Cc3ccccc3Cl)CC4)CC2)cc1` (as salt: hydrochloride) had a melting point of 174 to 178 °C.

Take `O=C(CCC1CCN(Cc2ccc(Cl)cc2)CC1)c1ccc2c(c1)CCN(Cc1ccc(F)cc1)CC2` (as salt: hydrochloride) [Example 41, 3-[1-[(4-Chlorophenyl)methyl]-4-piperidinyl]-1-[3-[(4-fluorophenyl)methyl]-2,3,4,5-tetrahydro-1H-3-benzazepin-7-yl]-1-propanone Dihydrochloride]: the melting point is 219 to 222 °C (dec.).

In turn, `O=C(CCC1CCN(Cc2ccc3c(c2)OCO3)CC1)c1ccc2c(c1)CN(Cc1ccccc1)CCO2` (as salt: hydrochloride) gave a melting point of 233 to 235 °C.

For `Cc1ccccc1CN1CCC(CCCC(=O)c2ccc3c(c2)CCNCC3)CC1` (as salt: hydrochloride) [Example 236, 4-[1-[(2-Methylphenyl)methyl]-4-piperidinyl]-1-(2,3,4,5-tetrahydro-1H-3-benzazepin-7-yl)-1-butanone Dihydrochloride], the melting point was 213 to 216 °C (dec.).

In the case of `COc1cccc(CN2CCC(CCCC(=O)c3ccc4c(c3)CCN(Cc3ccccc3)CC4)CC2)c1` (as salt: hydrochloride) [Example 156, 4-[1-[(3-Methoxyphenyl)methyl]-4-piperidinyl]-1-[3-(phenylmethyl)-2,3,4,5-tetrahydro-1H-3-benzazepin-7-yl]-1-butanone Dihydrochloride], the melting point is 215 to 218 °C (dec.).

`O=C(CCC1CCN(Cc2cccc(C(F)(F)F)c2)CC1)c1ccc2c(c1)CN(Cc1ccc(F)cc1)CCO2` (as salt: hydrochloride) had a melting point of 225 to 227 °C.

With `O=C(CCC1CCN(Cc2cccc(Cl)c2)CC1)c1ccc2c(c1)CN(Cc1ccc(F)cc1)CCO2` (as salt: hydrochloride) [Example 80, 3-[1-[(3-Chlorophenyl)methyl]-4-piperidiny]-1-[4-[(4-fluorophenyl)methyl]-2,3,4,5-tetrahydro-1,4-benzoxazepin-7-yl]-1-propanone Dihydrochloride], the melting point is 224 to 225 °C.

With `CC(=O)Nc1ccccc1CN1CCc2ccc(C(=O)CCCC3CCN(Cc4ccccc4Cl)CC3)cc2CC1` (as salt: hydrochloride) [Example 315, N-[2-[[7-[4-[1-[(2-chlorophenyl)methyl]-4-piperidinyl]butanoyl]-2,3,4,5-tetrahydro-1H-3-benzazepin-3-yl]methyl]phenyl]acetamide Dihydrochloride], the melting point lay within 138 to 144 °C.

On to `Cc1cccc(CN2CCC(CCCC(=O)c3ccc4c(c3)CCN(Cc3ccccc3C)CC4)CC2)c1` (as salt: hydrochloride), for which the melting point lay in the range of 179 to 182 °C.

On to `O=C(CCCC1CCN(Cc2cccc(Cl)c2)CC1)c1ccc2c(c1)CCN(Cc1ccccc1)CC2` (as salt: hydrochloride), for which the melting point is 230 to 234 °C (dec.).

`O=C(CCC1CCN(Cc2cccnc2)CC1)c1ccc2c(c1)CN(Cc1ccccc1)CCO2` (as salt: hydrochloride): the melting point was in the range of 228 to 230 °C.

The molecule `O=C(CCC1CCNCC1)c1ccc2c(c1)CN(Cc1ccc(F)cc1)CCO2` (as salt: hydrochloride) [Example 78, 1-[4-[(4-Fluorophenyl)methyl]-2,3,4,5-tetrahydro-1,4-benzoxazepin-7-yl]-3-(4-piperidinyl)-1-propanone Dihydrochloride] displayed a melting point of 173 to 174 °C.

The molecule `Cc1ccccc1CN1CCc2ccc(C(=O)CCCC3CCN(Cc4ccccc4C)CC3)cc2CC1` (as salt: hydrochloride) [Example 127, 4-[1-[(2-Methylphenyl)methyl]-4-piperidinyl]-1-[3-[(2-methylphenyl)methyl]-2,3,4,5-tetrahydro-1H-3-benzazepin-7-yl]-1-butanone Dihydrochloride] gave a melting point of 183 to 186 °C.

On to `CCOC(=O)c1ccc(CN2CCC(CCC(=O)c3ccc4c(c3)CCN(Cc3ccc(F)cc3)CC4)CC2)cc1` (as salt: hydrochloride), for which the melting point was 212 to 218 °C (dec.).

With `Cc1ccccc1CN1CCC(CCCC(=O)c2ccc3c(c2)CCN(Cc2ccccc2)CC3)CC1.Cl.Cl`, the melting point is 226 to 229 °C (dec.).

`Cc1ccc(CN2CCC(CC(=O)c3ccc4c(c3)CCN(Cc3ccccc3)CC4)CC2)cc1.Cl.Cl`: the melting point fell in the range of 229 to 233 °C.

With `O=C(CCC1CCN(Cc2ccc(C(F)(F)F)cc2)CC1)c1ccc2c(c1)CN(Cc1ccc(F)cc1)CCO2` (as salt: hydrochloride) [Example 88, 1-[4-[(4-Fluorophenyl)methyl]-2,3,4,5-tetrahydro-1,4-benzoxazepin-7-yl]-3-[1-[[4-(trifluoromethyl)phenyl]methyl]-4-piperidinyl]-1-propanone Dihydrochloride], the melting point lay in the range of 234 to 237 °C.

Consider `Nc1ccccc1CN1CCc2ccc(C(=O)CCCC3CCN(Cc4ccccc4Cl)CC3)cc2CC1` (as salt: hydrochloride) [Example 316, 1-[3-[(2-Aminophenyl)methyl]-2,3,4,5-tetrahydro-1H-3-benzazepin-7-yl]-4-[1-[(2-chlorophenyl)methyl]-4-piperidinyl]-1-butanone Trihydrochloride], for which the melting point was 155 to 164 °C (dec.).

The molecule `O=C(O)COc1cccc(CN2CCC(CCC(=O)c3ccc4c(c3)CN(Cc3ccc(F)cc3)CCO4)CC2)c1` (as salt: hydrochloride) gave a melting point of 201 to 204 °C.

Take `Cc1ccc(CN2CCC(CCCC(=O)c3ccc4c(c3)CCN(Cc3ccccc3[N+](=O)[O-])CC4)CC2)cc1` (as salt: hydrochloride) [Example 198, 4-[1-[(4-Methylphenyl)methyl]-4-piperidinyl]-1-[3-[(2-nitrophenyl)methyl]-2,3,4,5-tetrahydro-1H-3-benzazepin-7-yl]-1-butanone Dihydrochloride]: the melting point fell in the range of 164 to 167 °C.

On to `COc1ccc(CN2CCC(CCC(=O)c3ccc4c(c3)CCN(Cc3ccc(F)cc3)CC4)CC2)cc1` (as salt: hydrochloride), for which the melting point is 235 to 238 °C (dec.).

Consider `Cc1ccc(CN2CCC(CCCC(=O)c3ccc4c(c3)CCN(Cc3ccc(C#N)cc3)CC4)CC2)cc1.Cl.Cl`, for which the melting point is 206 to 209 °C (dec.).

In turn, `CC(=O)N1CCC(CCCC(=O)c2ccc3c(c2)CCN(Cc2ccccc2C)CC3)CC1` [Example 125, 4-(1-Acetyl-4-piperidinyl)-1-[3-[(2-methylphenyl)methyl]-2,3,4,5-tetrahydro-1H-3-benzazepin-7-yl]-1-butanone] gave a melting point of 94 to 95 °C.

With `Cc1ccc(CN2CCC(CCC(=O)c3ccc4c(c3)CN(Cc3ccccc3)CCO4)CC2)cc1` (as salt: hydrochloride), the melting point was 236 to 238 °C.

For `O=C(CCC1CCN(Cc2cccc(F)c2)CC1)c1ccc2c(c1)CN(Cc1ccccc1)CCO2` (as salt: hydrochloride), the melting point lay in the range of 241 to 243 °C.

Take `COc1ccc(CN2CCc3ccc(C(=O)CCC4CCN(Cc5ccc(-c6ccccc6)cc5)CC4)cc3CC2)cc1` (as salt: hydrochloride): the melting point was 220 to 225 °C (dec.).

Consider `O=C(CCC1CCN(Cc2ccc(O)cc2)CC1)c1ccc2c(c1)CCN(Cc1ccc(F)cc1)CC2` (as salt: hydrochloride), for which the melting point lay in the range of 166 to 169 °C.
